Reference: patent US20260001928A1 (CORTERIA PHARMACEUTICALS, priority 2022, published 2026)
*1 amine or outer side, *2 acyl side, *3 side chain or, on linkers, in order; H or OH if unused. Where a SMILES comes first, the peptide text is derived from it. Side-chain parts run from the residue outwards. [ ]: non-standard residue; d: D form. The star is where a group is joined. C20 diacid = O=C(O)CCCCCCCCCCCCCCCCCCC(=O)*; C18 diacid = O=C(O)CCCCCCCCCCCCCCCCC(=O)*; γGlu = O=C(O)[C@H](CCC(=O)[*:2])N[*:1]; NMeI = CC[C@H](C)[C@H](NC)C(=O)O; αMeL = CC(C)C[C@](C)(N)C(=O)O; AEEA = NCCOCCOCC(=O)O; Aib = CC(C)(N)C(=O)O

Columns and labels:
[1] = Chemical stability in buffer (pH 7.4 / pH 4.5), % purity loss; format: physicochemical; settings: 40° C. vs 5° C., 14 or 28 days; for Buffer stability pH 7.4 % purity loss: 100 mM phosphate buffer pH 7.4; for Buffer stability pH 4.5 % purity loss: 100 mM acetate buffer pH 4.5
Outline: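 Compounds dissolved at 10 mg/mL target in 100 mM phosphate (pH 7.4) or 100 mM acetate (pH 4.5) buffer for 1 h at room temperature, then centrifuged. Diluted supernatant stored at 5 °C or 40 °C for 14 or 28 days; % purity loss by LC-UV.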

[2] = In vitro plasma stability, minipig plasma; format: in vitro ADME; design: remaining at 2 h: dose or concentration left out as unconfirmed; settings: Minipig PLM, 37° C.
[3] = system: Sprague Dawley rats; experiment: Effect on systolic blood pressure, telemetry in Sprague Dawley rats; format: in vivo, rat; settings: 0.1 mg/kg SC; for Systolic blood pressure (Mean) % change from baseline, 8 h / Systolic blood pressure (Mean) % change from baseline, 12 h / Systolic blood pressure (Mean) % change from baseline, 24 h: n=2; for Duration of action: last time point with an effect on BP still observed
Outline: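 Sprague Dawley rats with abdominal-aorta telemetry catheters, recovered ≥10 days, received 0.1 mg/kg SC of compound or vehicle. Systolic pressure recorded 1 h pre-dose as baseline, then continuously up to 48 hours, expressed as % change from baseline; duration of action is last time point with a BP effect (n=2).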

[4] = target: T1, rat CRF2 a (Rattus norvegicus, UniProt P47866); experiment: Activity at rat CRF2 a, cAMP assay in A7R5 rat aortic smooth muscle cells; format: cell-based; settings: 0% HSA, 100% = Sauvagine at 100 nM
T1 construct: host or cells: A7R5 rat aortic smooth muscle cells
Outline: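 cAMP response measured in frozen-stock A7R5 rat aortic smooth muscle cells, 5000 cells/well final. 100% activation defined by Sauvagine at 100 nM in control wells.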

[5] = in vitro; design: dose or concentration left out as unconfirmed; settings: dog, plasma

T1 sequence (P47866 27-431 isoform P47866-2 limits assumed): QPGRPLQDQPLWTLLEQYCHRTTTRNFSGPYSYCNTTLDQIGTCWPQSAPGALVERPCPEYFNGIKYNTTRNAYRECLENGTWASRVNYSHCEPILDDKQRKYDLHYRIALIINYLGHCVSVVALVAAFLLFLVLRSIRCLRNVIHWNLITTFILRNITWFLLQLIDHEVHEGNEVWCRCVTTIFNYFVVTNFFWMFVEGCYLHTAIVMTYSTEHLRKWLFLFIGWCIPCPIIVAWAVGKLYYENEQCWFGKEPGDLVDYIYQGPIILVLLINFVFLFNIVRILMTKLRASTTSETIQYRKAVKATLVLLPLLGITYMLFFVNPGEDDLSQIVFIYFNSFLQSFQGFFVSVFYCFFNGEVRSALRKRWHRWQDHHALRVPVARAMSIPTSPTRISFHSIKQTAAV

Row | Buffer stability pH 7.4 % purity loss [1] | remaining at 2 h ([2]; pig, plasma) [%] | Buffer stability pH 4.5 % purity loss [1] | % remaining at 2 hours [2] [%] | EC50 [4] [nM] | remaining at 2 h [5] [%] | Compound | Systolic blood pressure (Mean) % change from baseline, 8 h [3] [%] | Systolic blood pressure (Mean) % change from baseline, 12 h [3] [%] | Systolic blood pressure (Mean) % change from baseline, 24 h [3] [%] | Duration of action [3] [h]
1 | 0/nd ^ % | 106 | – | – | – | – | CC[C@H](C)[C@H](NC(C)=O)C(=O)N[C@H](C(=O)N[C@@H](CC(C)C)C(=O)N[C@@H](CO)C(=O)N[C@@H](CC(C)C)C(=O)N[C@@H](CC(=O)O)C(=O)N[C@@H](C(=O)N1CCC[C@H]1C(=O)N[C@H](C(=O)N[C@@H](CCCCN)C(=O)N[C@@](C)(CC(C)C)C(=O)N[C@@H](CCCCNC(=O)COCCOCCNC(=O)COCCOCCNC(=O)CC[C@H](NC(=O)CCCCCCCCCCCCCCCCC(=O)O)C(=O)O)C(=O)N[C@@H](CCCCN)C(=O)N[C@H](C(=O)N[C@@H](CC(C)C)C(=O)N[C@@H](CC(C)C)C(=O)N[C@@H](CCC(=O)O)C(=O)N[C@@H](CCC(N)=O)C(=O)N[C@@H](CCC(=O)O)C(=O)N[C@@H](CCCCN)C(=O)N[C@@H](CCC(N)=O)C(=O)N[C@@H](CCCCN)C(=O)N[C@@H](CCCCN)C(=O)N[C@@H](CCC(N)=O)C(=O)N[C@@H](CCCNC(=N)N)C(=O)N[C@@H](CCC(=O)O)C(=O)N[C@@H](CCC(N)=O)C(=O)N[C@@H](C)C(=O)N[C@@H](CCC(=O)O)C(=O)N[C@H](C(=O)N[C@@H](CC(N)=O)C(=O)NC(C)(C)C(=O)N[C@@H](CCC(N)=O)C(=O)N[C@H](C(=O)N[C@@H](CC(C)C)C(=O)N[C@@H](C)C(=O)N[C@@H](CCC(N)=O)C(=O)N[C@H](C(N)=O)C(C)C)[C@@H](C)CC)[C@@H](C)O)[C@@H](C)CC)[C@@H](C)CC)C(C)C)C(C)C [compound 110] (Ac-IVLSLD[dV]PIK[αMeL]K([AEEA-AEEA-γGlu-C18 diacid])KILLEQEKQKKQREQAETN[Aib]QILAQV-NH2) | −19 | −10 | −6 | 20
2 | 0/0 ^ % | – | 0/0 ^ % | 126 | – | – | CC[C@H](C)[C@H](NC)C(=O)N[C@H](C(=O)N[C@@H](CC(C)C)C(=O)N[C@@H](CO)C(=O)N[C@@H](CC(C)C)C(=O)N[C@@H](CC(=O)O)C(=O)N[C@@H](C(=O)N1CCC[C@H]1C(=O)N[C@H](C(=O)N[C@@H](CCCCN)C(=O)N[C@@H](CC(C)C)C(=O)N[C@@H](CCCCNC(=O)COCCOCCNC(=O)COCCOCCNC(=O)CC[C@H](NC(=O)CCCCCCCCCCCCCCCCC(=O)O)C(=O)O)C(=O)N[C@@H](CCCCN)C(=O)N[C@H](C(=O)N[C@@H](CC(C)C)C(=O)N[C@@H](CC(C)C)C(=O)N[C@@H](CCC(=O)O)C(=O)N[C@@H](CCC(N)=O)C(=O)N[C@@H](CCC(=O)O)C(=O)N[C@@H](CCCCN)C(=O)N[C@@H](CCC(N)=O)C(=O)N[C@@H](CCCCN)C(=O)N[C@@H](CCCCN)C(=O)N[C@@H](CCC(N)=O)C(=O)N[C@@H](CCCNC(=N)N)C(=O)N[C@@H](CCC(=O)O)C(=O)N[C@@H](CCC(N)=O)C(=O)N[C@@H](C)C(=O)N[C@@H](CCC(=O)O)C(=O)N[C@H](C(=O)N[C@@H](CC(N)=O)C(=O)NC(C)(C)C(=O)N[C@@H](CCC(N)=O)C(=O)N[C@H](C(=O)N[C@@H](CC(C)C)C(=O)N[C@@H](C)C(=O)N[C@@H](CCC(N)=O)C(=O)N[C@H](C(N)=O)C(C)C)[C@@H](C)CC)[C@@H](C)O)[C@@H](C)CC)[C@@H](C)CC)C(C)C)C(C)C [compound 118] (H-[NMeI]VLSLD[dV]PIKLK([AEEA-AEEA-γGlu-C18 diacid])KILLEQEKQKKQREQAETN[Aib]QILAQV-NH2) | −24 | −17 | −4 | >24
3 | 0.0/0.0 ^ % | – | 0.0/0.0 ^ % | – | 0.06 | – | CC[C@H](C)[C@H](NC(C)=O)C(=O)N[C@H](C(=O)N[C@@H](CC(C)C)C(=O)N[C@@H](CO)C(=O)N[C@@H](CC(C)C)C(=O)N[C@@H](CC(=O)O)C(=O)N[C@@H](C(=O)N1CCC[C@H]1C(=O)N[C@H](C(=O)N[C@@H](CCCCN)C(=O)N[C@@H](CC(C)C)C(=O)N[C@@H](CCCCNC(=O)CC[C@H](NC(=O)CCCCCCCCCCCCCCCCCCC(=O)O)C(=O)O)C(=O)N[C@@H](CCCCN)C(=O)N[C@H](C(=O)N[C@@H](CC(C)C)C(=O)N[C@@H](CC(C)C)C(=O)N[C@@H](CCC(=O)O)C(=O)N[C@@H](CCC(N)=O)C(=O)N[C@@H](CCC(=O)O)C(=O)N[C@@H](CCCCN)C(=O)N[C@@H](CCC(N)=O)C(=O)N[C@@H](CCCCN)C(=O)N[C@@H](CCCCN)C(=O)N[C@@H](CCC(N)=O)C(=O)N[C@@H](CCCNC(=N)N)C(=O)N[C@@H](CCC(=O)O)C(=O)N[C@@H](CCC(N)=O)C(=O)N[C@@H](C)C(=O)N[C@@H](CCC(=O)O)C(=O)N[C@H](C(=O)N[C@@H](CC(N)=O)C(=O)NC(C)(C)C(=O)N[C@@H](CCC(N)=O)C(=O)N[C@H](C(=O)N[C@@H](CC(C)C)C(=O)N[C@@H](C)C(=O)N[C@@H](CCC(N)=O)C(=O)N[C@H](C(N)=O)C(C)C)[C@@H](C)CC)[C@@H](C)O)[C@@H](C)CC)[C@@H](C)CC)C(C)C)C(C)C [compound 206] (Ac-IVLSLD[dV]PIKLK([γGlu-C20 diacid])KILLEQEKQKKQREQAETN[Aib]QILAQV-NH2) | −12 | −16 | −13 | >24
4 | 0.0/Not Tested % | – | – | – | – | – | CC[C@H](C)[C@H](NC)C(=O)N[C@H](C(=O)N[C@@H](CC(C)C)C(=O)N[C@@H](CO)C(=O)N[C@@H](CC(C)C)C(=O)N[C@@H](CC(=O)O)C(=O)N[C@@H](C(=O)N1CCC[C@H]1C(=O)N[C@H](C(=O)N[C@@H](CCCCN)C(=O)N[C@@H](CC(C)C)C(=O)N[C@@H](CCCCNC(=O)CC[C@H](NC(=O)CCCCCCCCCCCCCCCCCCC(=O)O)C(=O)O)C(=O)N[C@@H](CCCCN)C(=O)N[C@H](C(=O)N[C@@H](CC(C)C)C(=O)N[C@@H](CC(C)C)C(=O)N[C@@H](CCC(=O)O)C(=O)N[C@@H](CCC(N)=O)C(=O)N[C@@H](CCC(=O)O)C(=O)N[C@@H](CCCCN)C(=O)N[C@@H](CCC(N)=O)C(=O)N[C@@H](CCCCN)C(=O)NC(C)(C)C(=O)N[C@@H](CCC(N)=O)C(=O)N[C@@H](CCCNC(=N)N)C(=O)N[C@@H](CCC(=O)O)C(=O)N[C@@H](CCC(N)=O)C(=O)N[C@@H](C)C(=O)N[C@@H](CCC(=O)O)C(=O)N[C@H](C(=O)N[C@@H](CC(N)=O)C(=O)NC(C)(C)C(=O)N[C@@H](CCC(N)=O)C(=O)N[C@H](C(=O)N[C@@H](CC(C)C)C(=O)N[C@@H](C)C(=O)N[C@@H](CCC(N)=O)C(=O)N[C@H](C(N)=O)C(C)C)[C@@H](C)CC)[C@@H](C)O)[C@@H](C)CC)[C@@H](C)CC)C(C)C)C(C)C [compound 215] (H-[NMeI]VLSLD[dV]PIKLK([γGlu-C20 diacid])KILLEQEKQK[Aib]QREQAETN[Aib]QILAQV-NH2) | −12 | −14 | −16 | >24
5 | 0.0/Not Tested % | – | – | – | – | 102 | CC[C@H](C)[C@H](NC)C(=O)N[C@H](C(=O)N[C@@H](CC(C)C)C(=O)N[C@@H](CO)C(=O)N[C@@H](CC(C)C)C(=O)N[C@@H](CC(=O)O)C(=O)N[C@@H](C(=O)N1CCC[C@H]1C(=O)N[C@H](C(=O)N[C@@H](CCCCN)C(=O)N[C@@H](CC(C)C)C(=O)N[C@@H](CCCCNC(=O)CC[C@H](NC(=O)CCCCCCCCCCCCCCCCCCC(=O)O)C(=O)O)C(=O)N[C@@H](CCCCN)C(=O)N[C@H](C(=O)N[C@@H](CC(C)C)C(=O)N[C@@H](CC(C)C)C(=O)N[C@@H](CCC(=O)O)C(=O)N[C@@H](CCC(N)=O)C(=O)N[C@@H](CCC(=O)O)C(=O)N[C@@H](CCCCN)C(=O)N[C@@H](CCC(N)=O)C(=O)N[C@@H](CCCCN)C(=O)N[C@@H](CCC(=O)O)C(=O)N[C@@H](CCC(N)=O)C(=O)N[C@@H](CCCNC(=N)N)C(=O)N[C@@H](CCC(=O)O)C(=O)N[C@@H](CCC(N)=O)C(=O)N[C@@H](C)C(=O)N[C@@H](CCC(=O)O)C(=O)N[C@H](C(=O)N[C@@H](CC(N)=O)C(=O)NC(C)(C)C(=O)N[C@@H](CCC(N)=O)C(=O)N[C@H](C(=O)N[C@@H](CC(C)C)C(=O)N[C@@H](C)C(=O)N[C@@H](CCC(N)=O)C(=O)N[C@H](C(N)=O)C(C)C)[C@@H](C)CC)[C@@H](C)O)[C@@H](C)CC)[C@@H](C)CC)C(C)C)C(C)C [compound 218] (H-[NMeI]VLSLD[dV]PIKLK([γGlu-C20 diacid])KILLEQEKQKEQREQAETN[Aib]QILAQV-NH2) | −13 | −17 | −16 | >24
